Values joined by “and” are separate entries in the source; they are usually repeats but may differ in a detail not shown here. Equal entries are not always repeated. Where two headings read alike, the source gives them in different places.
System: 60 cancer cell lines (NCI 60 cancer cell line series)
Test: NCI-DTP in vitro cancer screen, sulforhodamine B (SRB) growth inhibition, 48 hour exposure
Type: cell-based, human
Method: Cancer Cell Line Preparation. Sixty cancer cell lines were obtained from the National Cancer Institute Developmental Therapeutics Program (NCI-DTP). Procedures for growing cells and testing compounds have been described previously (Scudiero et al., Cancer Res. 1988, 48:4827-4833; Stinson et al., Anticancer Res.; Myers et al., Electrophoresis 1997, 18:647-653). Cells are plated on day 0 at a density individualized for each cell line so that they will generally be sub-confluent at the end of the assay period. On day 1, a compound is added in the format for a duplicate-well, 5-dose, ten-fold interval dose response study.
No-drug, no-cell and no-growth controls are included. On day 3 the cells are processed for staining with sulforhodamine B (SRB), which reflects the amount of cell mass present at the end of a 48 hour exposure to the test agent. From dose response curves based on the SRB data, various parameters can be determined. […] More precisely, the quantity used in the calculation to be described is the potency measure −log{GI50}.
Activity database (A). […] This subset of compounds was selected from the larger 23,000 compound database available from the DTP. The compounds were selected on the basis of their known mechanism of action and chemical structure. The average potency −log{GI50} was extracted from the comma-delimited text files available through the Web at http://www.nci.nih.gov/intra/lmp/jnwbio.html. Subsequently, these −log{GI50} values were inspected manually and classified as indicating either Low, Medium or High sensitivity to each compound.

O=C(O)CCCc1ccc(N(CCCl)CCCl)cc1 [Chlorambucil]
classification of cell line as Low(1), Medium(2), High(3) sensitivity to compound: 2 and 3 and 1 | classification of cell line as Low(1), Medium(2), High(3) sensitivity to compound (Breast BT-549 CL5013): 1 | classification of cell line as Low(1), Medium(2), High(3) sensitivity to compound (Breast HS-578T CL5006): 1 | classification of cell line as Low(1), Medium(2), High(3) sensitivity to compound (Breast MCF7(I) CL5001): 2 | classification of cell line as Low(1), Medium(2), High(3) sensitivity to compound (Breast MCF7/ADRr CL5002): 2 | classification of cell line as Low(1), Medium(2), High(3) sensitivity to compound (Breast MDA-MB-231 CL5005): 1 | classification of cell line as Low(1), Medium(2), High(3) sensitivity to compound (Breast MDA-MB-435 CL5011): 1 | classification of cell line as Low(1), Medium(2), High(3) sensitivity to compound (Breast MDA-N CL5012): 1 | classification of cell line as Low(1), Medium(2), High(3) sensitivity to compound (Breast T-47D CL5014): 2 | classification of cell line as Low(1), Medium(2), High(3) sensitivity to compound (Colon COLO-250 CL4010): 1 | classification of cell line as Low(1), Medium(2), High(3) sensitivity to compound (Colon HCC-2998 CL4002): 1 | classification of cell line as Low(1), Medium(2), High(3) sensitivity to compound (Colon HCT-15 CL4015): 2 | classification of cell line as Low(1), Medium(2), High(3) sensitivity to compound (Colon HCT-116 CL4003): 1 | classification of cell line as Low(1), Medium(2), High(3) sensitivity to compound (Colon HT29(I) CL4001): 1 | classification of cell line as Low(1), Medium(2), High(3) sensitivity to compound (Colon KM12 CL4017): 1 | classification of cell line as Low(1), Medium(2), High(3) sensitivity to compound (Colon SW-620 CL4009): 2 | classification of cell line as Low(1), Medium(2), High(3) sensitivity to compound (Leukemia CCRF-CEM(I) CL7003): 3 | classification of cell line as Low(1), Medium(2), High(3) sensitivity to compound (Leukemia HL-60(I) CL7008): 3 | classification of cell line as Low(1), Medium(2), High(3) sensitivity to compound (Leukemia K562(I) CL7005): 1 | classification of cell line as Low(1), Medium(2), High(3) sensitivity to compound (Leukemia MOLT-4 CL7006): 3 | classification of cell line as Low(1), Medium(2), High(3) sensitivity to compound (Leukemia RPMI-8226(I) CL7010): 2 | classification of cell line as Low(1), Medium(2), High(3) sensitivity to compound (Leukemia SR CL7019): 3 | classification of cell line as Low(1), Medium(2), High(3) sensitivity to compound (Melanoma LOX IMVI CL10001): 2 | classification of cell line as Low(1), Medium(2), High(3) sensitivity to compound (Melanoma M14 CL10014): 2 | classification of cell line as Low(1), Medium(2), High(3) sensitivity to compound (Melanoma MALME-3M CL10002): 2 | classification of cell line as Low(1), Medium(2), High(3) sensitivity to compound (Melanoma SK-MEL-2 CL10005): 1 | classification of cell line as Low(1), Medium(2), High(3) sensitivity to compound (Melanoma SK-MEL-5 CL10007): 2 | classification of cell line as Low(1), Medium(2), High(3) sensitivity to compound (Melanoma SK-MEL-28 CL10008): 1 | classification of cell line as Low(1), Medium(2), High(3) sensitivity to compound (Melanoma UACC-62 CL10020): 3 | classification of cell line as Low(1), Medium(2), High(3) sensitivity to compound (Melanoma UACC-257 CL10021): 2 | classification of cell line as Low(1), Medium(2), High(3) sensitivity to compound (NSCLC A549/ATCC CL1004): 2 | classification of cell line as Low(1), Medium(2), High(3) sensitivity to compound (NSCLC EKVX CL1008): 1 | classification of cell line as Low(1), Medium(2), High(3) sensitivity to compound (NSCLC HOP-62 CL1026): 2 | classification of cell line as Low(1), Medium(2), High(3) sensitivity to compound (NSCLC HOP-92 CL1029): 2 | sensitivity classification Low(1)/Medium(2)/High(3) (NSCLC NCI-H23(I) CL1001): 2 | classification of cell line as Low(1), Medium(2), High(3) sensitivity to compound (NSCLC NCI-H226 CL1013): 2 | sensitivity classification Low(1)/Medium(2)/High(3) (NSCLC NCI-H332M CL1017): 1 | sensitivity classification Low(1)/Medium(2)/High(3) (NSCLC NCI-H460 CL1021): 3 | sensitivity classification Low(1)/Medium(2)/High(3) (NSCLC NCI-H522 CL1003): 2 | sensitivity classification Low(1)/Medium(2)/High(3) (Ovarian IGROV1 CL6010): 1 | sensitivity classification Low(1)/Medium(2)/High(3) (Ovarian OVCAR-3 CL6001): 1 | sensitivity classification Low(1)/Medium(2)/High(3) (Ovarian OVCAR-4 CL6002): 1 | sensitivity classification Low(1)/Medium(2)/High(3) (Ovarian OVCAR-5 CL6003): 1 | sensitivity classification Low(1)/Medium(2)/High(3) (Ovarian OVCAR-8 CL6005): 2 | sensitivity classification Low(1)/Medium(2)/High(3) (Ovarian SK-OV-3 CL6011): 1 | sensitivity classification Low(1)/Medium(2)/High(3) (Prostate DU-145 CL11003): 2 | sensitivity classification Low(1)/Medium(2)/High(3) (Prostate PC-3(I) CL11001): 1 | sensitivity classification Low(1)/Medium(2)/High(3) (Renal 786-0 CL9018): 2 | sensitivity classification Low(1)/Medium(2)/High(3) (Renal A498 CL9013): 1 | sensitivity classification Low(1)/Medium(2)/High(3) (Renal ACHN CL9023): 3 | sensitivity classification Low(1)/Medium(2)/High(3) (Renal CAKI-1 CL9015): 3 | sensitivity classification Low(1)/Medium(2)/High(3) (Renal RXF-393 CL9016): 2 | sensitivity classification Low(1)/Medium(2)/High(3) (Renal SN12C CL9008): 2 | sensitivity classification Low(1)/Medium(2)/High(3) (Renal TK10 CL9024): 1 | sensitivity classification Low(1)/Medium(2)/High(3) (Renal UO-31 CL9004): 2
